The subject of the assay is P388 leukemia ip, CD2F1 mice, survival T/C. In words: NCI In Vivo Anticancer Drug Screen. Data for tumor model P388 Leukemia (intraperitoneal) in CD2F1 (CDF1) mice. The following applies: endpoint: median survival time, higher = longer survival. The method in brief: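 Mice carrying the transplanted tumor received test compound or vehicle. Survival was recorded in each group, and the value is the treated-group measurement divided by that of the vehicle-treated control group.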

[1] abbreviates: dose: 50.0 mg/kg/injection, schedule: Q01DX009 (ip), vehicle: Klucel (hydroxypropylcellulose) (HPC).
Where [2] appears, read: dose: 100.0 mg/kg/injection, schedule: Q01DX009 (ip), vehicle: Klucel (hydroxypropylcellulose) (HPC).
Setting [3] is: dose: 200.0 mg/kg/injection, schedule: Q01DX009 (ip), vehicle: Klucel (hydroxypropylcellulose) (HPC).
Setting [4] is: dose: 15.0 mg/kg/injection, schedule: Q01DX005 (ip), vehicle: saline with Tween-80.
[5] abbreviates: dose: 30.0 mg/kg/injection, schedule: Q01DX005 (ip), vehicle: saline with Tween-80.
Setting [6] is: dose: 60.0 mg/kg/injection, schedule: Q01DX005 (ip), vehicle: saline with Tween-80.
Where [7] appears, read: dose: 60.0 mg/kg/injection, schedule: Q01DX005 (ip), vehicle: Klucel (hydroxypropylcellulose) (HPC).
Setting [8] is: dose: 50.0 mg/kg/injection, schedule: Q01DX009 (ip), vehicle: saline with Tween-80.
The mark [9] stands for this setting: dose: 100.0 mg/kg/injection, schedule: Q01DX009 (ip), vehicle: saline with Tween-80.
[10] abbreviates: dose: 200.0 mg/kg/injection, schedule: Q01DX009 (ip), vehicle: saline with Tween-80.
The mark [11] stands for this setting: dose: 400.0 mg/kg/injection, schedule: Q01DX009 (ip), vehicle: saline with Tween-80.
Where [12] appears, read: dose: 7.5 mg/kg/injection, schedule: Q01DX009 (ip), vehicle: saline with Tween-80.
Where [13] appears, read: dose: 120.0 mg/kg/injection, schedule: Q01DX005 (ip), vehicle: saline with Tween-80.
Where [14] appears, read: dose: 240.0 mg/kg/injection, schedule: Q01DX005 (ip), vehicle: saline with Tween-80.
[15] abbreviates: dose: 100.0 mg/kg/injection, schedule: Q04DX003 (ip), vehicle: Klucel (hydroxypropylcellulose) (HPC).
Where [16] appears, read: dose: 200.0 mg/kg/injection, schedule: Q04DX003 (ip), vehicle: Klucel (hydroxypropylcellulose) (HPC).
Setting [17] is: dose: 25.0 mg/kg/injection, schedule: Q01DX009 (ip), vehicle: saline with Tween-80.

“And” between values parts separate entries of the source, which are not always exact repeats. Identical values can stand only once. Toxic doses and inconclusive results are not listed.

On to `Cc1cc(C)c(SSc2nnnn2-c2ccccc2)c(C)c1`, for which the T/C is, setting by setting: under setting [1], 108 % of control; under setting [2], 103 % of control; under setting [3], 94 % of control.
For the molecule `O=C(C1=Cc2ccccc2OC1)N1CCN(c2cccc(Cl)c2)CC1`, the T/C was 98 % of control (dose: 100.0 mg/kg/injection, schedule: Q04DX003 (ip), vehicle: saline with Tween-80); 102 % of control (dose: 200.0 mg/kg/injection, schedule: Q04DX003 (ip), vehicle: saline with Tween-80); 93 % of control (dose: 400.0 mg/kg/injection, schedule: Q04DX003 (ip), vehicle: saline with Tween-80).
Consider `Cc1nc2ccc(N)cc2oc1=O`, for which the T/C under setting [4] was 100 % of control; the T/C under setting [5] is 101 % of control; the T/C under setting [6] is 105 % of control and 98 % of control.
Take `CC1(C)C(=O)C2(CCCCC2)C1N1CCCCC1` (configuration not stated): the T/C under setting [1] was 96 % of control, the T/C under setting [2] was 98 % of control and the T/C under setting [3] was 107 % of control.
`O=c1[nH]c2ccccc2c2nc(-c3ccccc3)c3ccccc3c12`: the T/C under setting [7] is 96 % of control; the T/C (dose: 120.0 mg/kg/injection, schedule: Q01DX005 (ip), vehicle: Klucel (hydroxypropylcellulose) (HPC)) is 86 % of control; the T/C (dose: 240.0 mg/kg/injection, schedule: Q01DX005 (ip), vehicle: Klucel (hydroxypropylcellulose) (HPC)) is 91 % of control.
As for `COc1ccc(C(=O)C(C)Br)c(OCc2ccccc2)c1OC` (configuration not stated), the T/C by setting is: under setting [8], 107 % of control; under setting [9], 105 % of control and 109 % of control; under setting [10], 114 % of control and 118 % of control; under setting [11], 110 % of control and 122 % of control.
On to `CCCCCCCCS(=O)(=O)OCCCCOS(=O)(=O)CCCCCCCC`, for which the T/C was 103 % of control (dose: 31.25 mg/kg/injection, schedule: Q01DX005 (ip), vehicle: Klucel (hydroxypropylcellulose) (HPC)); 103 % of control (dose: 62.5 mg/kg/injection, schedule: Q01DX005 (ip), vehicle: Klucel (hydroxypropylcellulose) (HPC)); 103 % of control (dose: 125.0 mg/kg/injection, schedule: Q01DX005 (ip), vehicle: Klucel (hydroxypropylcellulose) (HPC)).
As for `O=C[C@@H](CO)O[C@H](C=O)n1cnc2c(=O)[nH]cnc21`, the T/C was 166 % of control and 169 % of control (dose: 80.0 mg/kg/injection, schedule: Q01DX009 (ip), vehicle: saline); 171 % of control (dose: 150.0 mg/kg/injection, schedule: Q01DX005 (ip), vehicle: saline); 187 % of control and 189 % of control and 209 % of control (dose: 160.0 mg/kg/injection, schedule: Q01DX009 (ip), vehicle: saline); 56 % of control (dose: 250.0 mg/kg/injection, schedule: Q01DX005 (ip), vehicle: saline); 100 % of control and 104 % of control (dose: 320.0 mg/kg/injection, schedule: Q01DX009 (ip), vehicle: saline).
For the molecule `CCCCCCCN(CCCCCCC)CC(O)c1c(OC)c2cc(Br)ccc2c2ccc(Br)cc12` (configuration not stated), the T/C under setting [12] was 93 % of control; the T/C (dose: 15.0 mg/kg/injection, schedule: Q01DX009 (ip), vehicle: saline with Tween-80) was 100 % of control; the T/C (dose: 30.0 mg/kg/injection, schedule: Q01DX009 (ip), vehicle: saline with Tween-80) was 93 % of control.
Turning to `CCOC(=O)CNC(=O)/C=C\C(=O)NC(=O)OCC`, the T/C runs as follows: (dose: 3.7 mg/kg/injection, schedule: Q01DX009 (ip), vehicle: saline with Tween-80) 110 % of control; under setting [12], 107 % of control.
As to `S`, the T/C is, setting by setting: under setting [9], 113 % of control; under setting [10], 115 % of control; under setting [11], 113 % of control.
As to `Fc1ccc(CSC(=S)Nc2cccc(C(F)(F)F)c2)cc1`, the T/C is 97 % of control (dose: 50.0 mg/kg/injection, schedule: Q01DX009 (ip), vehicle: suspension in saline) and 90 % of control (dose: 100.0 mg/kg/injection, schedule: Q01DX009 (ip), vehicle: suspension in saline).
Take `O=C(c1ccccc1)c1ccccc1NCC(O)COc1cccc2ccccc12` (configuration not stated): the T/C is, setting by setting: under setting [6], 100 % of control; under setting [13], 92 % of control; under setting [14], 91 % of control.
Turning to `Cc1cc(O)c(N=Nc2cc(C)c(C)cc2[N+](=O)[O-])cc1C`, the T/C is 109 % of control under setting [1], 109 % of control under setting [2] and 101 % of control under setting [3].
`Oc1c(-c2ccccc2)nc2cnccn12`: the T/C under setting [6] was 100 % of control, the T/C under setting [13] was 107 % of control and the T/C under setting [14] was 107 % of control.
`CC(Cl)C(=O)N(C)c1ccccc1` (configuration not stated): the T/C was 96 % of control under setting [15] and 92 % of control under setting [16].
For `N#CC1=Cc2ccccc2OC1`, the T/C is, setting by setting: under setting [15], 108 % of control; under setting [16], 108 % of control; (dose: 400.0 mg/kg/injection, schedule: Q04DX003 (ip), vehicle: Klucel (hydroxypropylcellulose) (HPC)) 105 % of control.
Take `O=Nc1sc(=S)n(N2CCCCC2)c1O`: the T/C was 99 % of control (dose: 50.0 mg/kg/injection, schedule: Q01DX005 (ip), vehicle: Klucel (hydroxypropylcellulose) (HPC)) and 96 % of control (dose: 100.0 mg/kg/injection, schedule: Q01DX005 (ip), vehicle: Klucel (hydroxypropylcellulose) (HPC)).
With `CONC(=O)Cc1cccc(OC)c1`, the T/C was 104 % of control under setting [17], 114 % of control under setting [8] and 98 % of control under setting [9].
As to `CC(C)OC(=O)C(C)(C)Oc1ccc(C(=O)c2ccc(Cl)cc2)cc1`, the T/C under setting [8] was 111 % of control, the T/C under setting [9] was 98 % of control and the T/C under setting [10] was 97 % of control.
For `CC#CC(=O)OC`, the T/C was 94 % of control under setting [8], 101 % of control under setting [9], 98 % of control under setting [10] and 98 % of control under setting [11].
On to `N#Cc1ccc2c(ccc3ncccc32)n1`, for which the T/C runs as follows: (dose: 25.0 mg/kg/injection, schedule: Q04DX002 (ip), vehicle: saline with Tween-80) 100 % of control; (dose: 50.0 mg/kg/injection, schedule: Q04DX002 (ip), vehicle: saline with Tween-80) 100 % of control; (dose: 100.0 mg/kg/injection, schedule: Q04DX002 (ip), vehicle: saline with Tween-80) 101 % of control.
Turning to `C/C(=N\N)c1nc2ccccc2[nH]1`, the T/C under setting [4] is 101 % of control, the T/C under setting [5] is 101 % of control, the T/C under setting [7] was 100 % of control and the T/C under setting [6] was 108 % of control.
Take `Cn1c(=O)cc2n(C)c3ccccc3n2c1=O`: the T/C runs as follows: under setting [6], 96 % of control; under setting [13], 100 % of control; under setting [14], 97 % of control.
On to `CC(/C=C/c1ccccc1)=N\NC(=O)C(N)=O`, for which the T/C (dose: 12.5 mg/kg/injection, schedule: Q01DX009 (ip), vehicle: saline with Tween-80) was 97 % of control; the T/C under setting [17] is 97 % of control; the T/C under setting [8] was 96 % of control; the T/C (dose: 50.0 mg/kg/injection, schedule: Q01DX009 (ip), vehicle: saline) is 100 % of control; the T/C (dose: 100.0 mg/kg/injection, schedule: Q01DX009 (ip), vehicle: saline) was 91 % of control; the T/C (dose: 200.0 mg/kg/injection, schedule: Q01DX009 (ip), vehicle: saline) was 98 % of control.
Regarding `O=C(Oc1ccc(NC(=O)c2cc3c(cc2Br)OCO3)cc1)c1ccccc1`, the T/C (dose: 25.0 mg/kg/injection, schedule: Q01DX009 (ip), vehicle: other) was 104 % of control; the T/C (dose: 50.0 mg/kg/injection, schedule: Q01DX009 (ip), vehicle: other) is 103 % of control; the T/C (dose: 100.0 mg/kg/injection, schedule: Q01DX009 (ip), vehicle: other) was 89 % of control; the T/C (dose: 200.0 mg/kg/injection, schedule: Q01DX009 (ip), vehicle: other) was 97 % of control; the T/C (dose: 400.0 mg/kg/injection, schedule: Q01DX009 (ip), vehicle: other) is 95 % of control.
With `COC(=O)C1=NC1c1ccc(C)cc1` (configuration not stated), the T/C by setting is: (dose: 100.0 mg/kg/injection, schedule: Q01DX001 (ip), vehicle: saline with Tween-80) 104 % of control; (dose: 200.0 mg/kg/injection, schedule: Q01DX001 (ip), vehicle: saline with Tween-80) 110 % of control; (dose: 400.0 mg/kg/injection, schedule: Q01DX001 (ip), vehicle: saline with Tween-80) 100 % of control.
